Experimental findings from patent publication US9655904B2, “Substituted benzoazepines as toll-like receptor modulators” (VentiRx Pharmaceuticals, Inc., priority 2009, dated 2017) are described below.

One experiment addresses T1, TLR8 (Homo sapiens, UniProt Q9NR97).
T1 sequence (Q9NR97 27-1041): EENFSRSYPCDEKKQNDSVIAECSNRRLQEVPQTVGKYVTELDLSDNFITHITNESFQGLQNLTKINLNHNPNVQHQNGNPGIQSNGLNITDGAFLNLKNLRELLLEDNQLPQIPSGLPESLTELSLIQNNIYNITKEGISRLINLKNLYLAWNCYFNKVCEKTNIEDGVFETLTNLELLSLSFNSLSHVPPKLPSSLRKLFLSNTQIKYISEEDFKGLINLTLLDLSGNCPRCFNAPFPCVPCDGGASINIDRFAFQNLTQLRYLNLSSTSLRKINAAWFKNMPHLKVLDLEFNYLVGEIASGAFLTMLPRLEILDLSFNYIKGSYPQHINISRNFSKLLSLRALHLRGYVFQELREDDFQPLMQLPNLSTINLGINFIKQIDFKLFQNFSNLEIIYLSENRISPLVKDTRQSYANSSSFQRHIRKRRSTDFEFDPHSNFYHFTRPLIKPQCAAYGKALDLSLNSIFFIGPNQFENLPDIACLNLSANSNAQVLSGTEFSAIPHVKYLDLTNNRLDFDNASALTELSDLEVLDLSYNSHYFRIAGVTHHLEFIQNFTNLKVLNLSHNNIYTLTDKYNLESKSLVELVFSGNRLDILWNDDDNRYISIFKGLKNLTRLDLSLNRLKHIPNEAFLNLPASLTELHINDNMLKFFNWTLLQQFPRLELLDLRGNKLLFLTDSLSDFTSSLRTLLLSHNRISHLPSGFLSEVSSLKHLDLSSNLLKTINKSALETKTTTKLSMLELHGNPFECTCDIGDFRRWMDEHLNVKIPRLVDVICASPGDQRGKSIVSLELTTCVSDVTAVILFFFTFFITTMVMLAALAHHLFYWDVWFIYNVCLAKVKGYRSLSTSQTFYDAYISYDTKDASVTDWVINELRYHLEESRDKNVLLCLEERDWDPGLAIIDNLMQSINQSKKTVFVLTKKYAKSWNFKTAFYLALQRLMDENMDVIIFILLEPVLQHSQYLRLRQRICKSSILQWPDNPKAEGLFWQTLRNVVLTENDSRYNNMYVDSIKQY
The experiment is described as follows: PBMC assay for TLR8 (TNFα in supernatants by ELISA). As to conditions: human PBMCs incubated with compound overnight, MC50 = concentration at which 50% of maximum induction is seen. Also noted: Peripheral blood mononuclear cells (PBMCs) from human blood were isolated; endogenous in cells; host or cells: human PBMCs. It counts as cell-based. As to the method: (§1) Peripheral blood mononuclear cells (PBMCs) from human blood were isolated using BD Vacutainer Cell Preparation Tubes with sodium citrate. Cells were incubated with compound overnight. TLR8 activity was assayed by measuring the amount of TNFα in supernatants by ELISA. TLR7 activity was assayed by measuring the amount of IFNα in supernatants by ELISA (R&D Systems). […] The results of this assay are shown below in Tables 2 and 3.
(§2) MC50 numbers are represented as factors of ten, for example, + indicates an MC50 value of X 10^4, or a value in the tens of thousands of nanomolar (nM range); ++ indicates an MC50 value of X 10^3, or a value in the thousands; +++ indicates an MC50 value of X 10^2, or a value in the hundreds; and ++++ indicates an MC50 value of X 10^1 or 10^0, or a value in the tens or ones.
For orientation: In an ELISA, binding on a coated surface is turned into a signal by an enzyme label.

Another experiment deals with T2, TLR7 (Homo sapiens, UniProt Q9NYK1).
T2 sequence (Q9NYK1 27-1049): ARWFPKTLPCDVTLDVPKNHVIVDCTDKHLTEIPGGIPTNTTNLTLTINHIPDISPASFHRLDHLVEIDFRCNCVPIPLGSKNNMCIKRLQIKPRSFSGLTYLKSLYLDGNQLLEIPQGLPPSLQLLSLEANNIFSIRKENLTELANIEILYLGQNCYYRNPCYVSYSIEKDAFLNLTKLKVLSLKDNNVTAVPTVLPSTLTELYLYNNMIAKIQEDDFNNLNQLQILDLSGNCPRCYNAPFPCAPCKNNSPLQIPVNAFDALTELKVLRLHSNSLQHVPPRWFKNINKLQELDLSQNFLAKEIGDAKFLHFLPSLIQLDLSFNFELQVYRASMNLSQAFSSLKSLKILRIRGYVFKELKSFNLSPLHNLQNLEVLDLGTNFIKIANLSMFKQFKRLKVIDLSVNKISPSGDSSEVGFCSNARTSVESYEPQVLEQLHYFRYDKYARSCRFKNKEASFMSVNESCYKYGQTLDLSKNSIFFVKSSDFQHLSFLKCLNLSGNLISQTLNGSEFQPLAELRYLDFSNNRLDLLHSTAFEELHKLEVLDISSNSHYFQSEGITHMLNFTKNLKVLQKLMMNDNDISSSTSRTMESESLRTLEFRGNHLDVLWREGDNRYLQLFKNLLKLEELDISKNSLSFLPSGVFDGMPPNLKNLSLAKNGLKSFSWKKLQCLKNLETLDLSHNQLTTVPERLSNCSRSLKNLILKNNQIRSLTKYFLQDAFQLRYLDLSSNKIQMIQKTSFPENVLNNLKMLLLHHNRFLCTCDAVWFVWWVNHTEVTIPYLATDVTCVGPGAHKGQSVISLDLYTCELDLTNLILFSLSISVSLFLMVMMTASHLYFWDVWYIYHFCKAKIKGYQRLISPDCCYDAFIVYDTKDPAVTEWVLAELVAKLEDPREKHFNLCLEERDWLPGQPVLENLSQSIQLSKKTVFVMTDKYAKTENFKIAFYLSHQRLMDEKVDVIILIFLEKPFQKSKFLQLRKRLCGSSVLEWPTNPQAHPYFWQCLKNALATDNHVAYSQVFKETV
Put plainly: PBMC assay for TLR7 (IFNα in supernatants by ELISA). The class given is cell-based. Also noted: Peripheral blood mononuclear cells (PBMCs) from human blood were isolated; endogenous in cells; host or cells: human PBMCs. The conditions noted are these: human PBMCs incubated with compound overnight, MC50 = concentration at which 50% of maximum induction is seen. As to the method:
as §1, §2

For the compound `CCCN(CC1CCNCC1)C(=O)C1=Cc2ccc(-c3ccc(C(=O)N4CCCC4)cc3)cc2N=C(N)C1` [Compound 113, (1E,4E)-2-amino-N-(piperidin-4-ylmethyl)-N-propyl-8-(4-(pyrrolidine-1-carbonyl)phenyl)-3H-benzo[b]azepine-4-carboxamide], the EC50 at TLR8 lay within 100 to 1000 nM.

`NC1=Nc2cc(-c3ccc(C(=O)N4CCCC4)cc3)ccc2C=C(C(=O)NOCc2ccccc2)C1` [Compound 116, (1E,4E)-2-amino-N-(benzyloxy)-8-(4-(pyrrolidine-1-carbonyl)phenyl)-3H-benzo[b]azepine-4-carboxamide]: the EC50 at TLR8 is 1000 to 10000 nM; on TLR7, 10000 to 100000 nM.

In the case of `CCCN(OCc1ccccc1)C(=O)C1=Cc2ccc(-c3ccc(C(=O)N4CCCC4)cc3)cc2N=C(N)C1` [Compound 118, (1E,4E)-2-amino-N-(benzyloxy)-N-propyl-8-(4-(pyrrolidine-1-carbonyl)phenyl)-3H-benzo[b]azepine-4-carboxamide], the 50% effective concentration (EC50) at TLR8 fell in the range of 1 to 100 nM.

As to `CCOC(=O)C1=Cc2ccc(OCc3ccccc3)cc2N=C(N)C1` [Compound 148, (1E,4E)-ethyl 2-amino-8-(benzyloxy)-3H-benzo[b]azepine-4-carboxylate], the EC50 on TLR8 was 100 to 1000 nM.

As to `CCCN(CC1CCCN1)C(=O)C1=Cc2ccc(-c3ccc(C(=O)N4CCCC4)cc3)cc2N=C(N)C1` (stereo not shown) [Compound 175, (1E,4E)-2-amino-N-propyl-N-(pyrrolidin-2-ylmethyl)-8-(4-(pyrrolidine-1-carbonyl)phenyl)-3H-benzo[b]azepine-4-carboxamide], the EC50 at TLR8 lay within 1000 to 10000 nM.

In the case of `CCCN(CCCS(N)(=O)=O)C(=O)C1=Cc2ccc(-c3ccc(C(=O)N4CCCC4)cc3)cc2N=C(N)C1` [Compound 177, (1E,4E)-2-amino-N-propyl-8-(4-(pyrrolidine-1-carbonyl)phenyl)-N-(3-sulfamoylpropyl)-3H-benzo[b]azepine-4-carboxamide], the EC50 on TLR8 fell in the range of 100 to 1000 nM.

As to `CCCN(CCC)C(=O)C1=Cc2ccc(CCCN3CCOCC3)cc2N=C(N)C1` [Compound 184, (1E,4E)-2-amino-8-(3-morpholinopropyl)-N,N-dipropyl-3H-benzo[b]azepine-4-carboxamide], the EC50 is 1 to 100 nM on TLR8 and 1000 to 10000 nM at TLR7.

In the case of `CCCN(CCC)C(=O)C1=Cc2ccc(OCc3ccccc3)cc2N=C(N)C1` [Compound 185, (1E,4E)-2-amino-8-(benzyloxy)-N,N-dipropyl-3H-benzo[b]azepine-4-carboxamide], the concentration giving a half-maximal response (EC50) at TLR8 was in the range of 100 to 1000 nM.

Turning to `CCCN(CCC)C(=O)C1=Cc2ccc(-c3ccc(CC(=O)O)cc3)cc2N=C(N)C1` [Compound 191, 2-(4-((1E,4E)-2-Amino-4-(dipropylcarbamoyl)-3H-benzo[b]azepin-8-yl)phenyl)acetic acid], the EC50 at TLR8 was in the range of 1000 to 10000 nM; at TLR7, 10000 to 100000 nM.

As for `CCCN(CCC)C(=O)C1=Cc2ccc(-c3ccc(CC(=O)OCC)cc3)cc2N=C(N)C1` [Compound 192, Ethyl 2-(4-((1E,4E)-2-amino-4-(dipropylcarbamoyl)-3H-benzo[b]azepin-8-yl)phenyl)acetate], the values for the EC50 at TLR8 and at TLR7 were 100 to 1000 nM and 10000 to 100000 nM, respectively.

Take `CCCN(CCC)C(=O)C1=Cc2ccc(-c3ccc(CCC(=O)OCC)cc3)cc2N=C(N)C1` [Compound 193, Ethyl 3-(4-((1E,4E)-2-amino-4-(dipropylcarbamoyl)-3H-benzo[b]azepin-8-yl)phenyl)propanoate]: the EC50 on TLR8 and on TLR7 was 1000 to 10000 nM in each case.

With `CCCN(CCC)C(=O)C1=Cc2ccc(-c3ccc(OCC(=O)O)cc3)cc2N=C(N)C1` [Compound 196, 2-(4-((1E,4E)-2-Amino-4-(dipropylcarbamoyl)-3H-benzo[b]azepin-8-yl)phenoxy)acetic acid], the EC50 at TLR8 fell in the range of 10000 to 100000 nM.

Take `CCCN(CCC)C(=O)C1=Cc2ccc(-c3ccc4c(c3)COC4=O)cc2N=C(N)C1` [Compound 198, (1E,4E)-2-Amino-8-(1-oxo-1,3-dihydroisobenzofuran-5-yl)-N,N-dipropyl-3H-benzo[b]azepine-4-carboxamide]: the EC50 at TLR8 lay in the range of 100 to 1000 nM.

For `CCOC(=O)C1=Cc2ccc(CCCN3CCOCC3)cc2N=C(N)C1` [Compound 200, (1E,4E)-ethyl 2-amino-8-(3-morpholinopropyl)-3H-benzo[b]azepine-4-carboxylate], the EC50 on TLR8 lay in the range of 1 to 100 nM.

Turning to `CCCN(CCC)C(=O)C1=Cc2ccc(-c3ccc(C(=O)NCCCC(=O)OCc4ccccc4)cc3)cc2N=C(N)C1` [Compound 201, benzyl 4-(4-((1E,4E)-2-amino-4-(dipropylcarbamoyl)-3H-benzo[b]azepin-8-yl)benzamido)butanoate], the EC50 at TLR8 was in the range of 100 to 1000 nM.

For the compound `CCCN(CCC)C(=O)C1=Cc2ccc(-c3cccc(CC(=O)OCC)c3)cc2N=C(N)C1` [Compound 205, Ethyl 2-(3-((1E,4E)-2-amino-4-(dipropylcarbamoyl)-3H-benzo[b]azepin-8-yl)phenyl)acetate], the 50% effective concentration (EC50) on TLR8 fell in the range of 100 to 1000 nM.

For `CCCN(CCCO)C(=O)C1=Cc2ccc(-c3ccc(CC(=O)OCC4CC4)cc3)cc2N=C(N)C1` [Compound 217, Cyclopropylmethyl 2-(4-((1E,4E)-2-amino-4-((3-hydroxypropyl)(propyl)carbamoyl)-3H-benzo[b]azepin-8-yl)phenyl)acetate], the 50% effective concentration (EC50) on TLR8 is 1 to 100 nM.

For `CCCN(CCCO)C(=O)C1=Cc2ccc(-c3ccc(CC(=O)OCc4ccccc4)cc3)cc2N=C(N)C1` [Compound 218, Benzyl 2-(4-((1E,4E)-2-amino-4-((3-hydroxypropyl)(propyl)carbamoyl)-3H-benzo[b]azepin-8-yl)phenyl)acetate], the EC50 at TLR8 was 100 to 1000 nM.

As for `CCCN(CCCO)C(=O)C1=Cc2ccc(-c3ccc4c(c3)COC4=O)cc2N=C(N)C1` [Compound 221, (1E,4E)-2-Amino-N-(3-hydroxypropyl)-8-(1-oxo-1,3-dihydroisobenzofuran-5-yl)-N-propyl-3H-benzo[b]azepine-4-carboxamide], the EC50 on TLR8 fell in the range of 100 to 1000 nM.

For the compound `CCCN(CCC)C(=O)C1=Cc2ccc(-c3ccc(OS(=O)(=O)C(F)(F)F)cc3)cc2N=C(N)C1` [Compound 226, 4-((1E,4E)-2-amino-4-(dipropylcarbamoyl)-3H-benzo[b]azepin-8-yl)phenyl trifluoromethanesulfonate], at TLR8, the EC50 is 100 to 1000 nM.

In general, EC50 refers to the concentration giving half of the maximal effect.
